# US20200060276A1, “THIAZOLE COMPOUND AND HERBICIDE” (OAT Agrio Co., Ltd., priority 2017, published 2020)
# Experiments:
# Format in all cases: in vivo
# Monochoria vaginalis = assay: Test for Herbicidal Effect in Flooding Treatment (#1), MONVA; conditions: for MONVA #1 herbicidal effect (growth inhibition grade): flooding treatment at seeding, dose 2 kg/ha, visual observation on day 21; for MONVA #1 herbicidal effect (growth inhibition rating 0-5): flooding treatment #1
# Method: (#1) Test for Herbicidal Effect in Flooding Treatment: Styrol cups each having an opening diameter of 8 cm (about 52 cm^2) were respectively filled with soil (45 ml) which had been passed through a sieve (2 mm). Water (about 115 ml) was mixed with the soil such that the soil was flooded. After the soil stood still for 24 hours, Monochoria vaginalis, Echinochloa crus-galli (L.) P. Beauv. var. formosensis Ohwi, Cyperus difformis (umbrella sedge), and Scirpus juncoides were seeded. Each of the compounds of the present invention was dissolved in acetone, and the obtained product was then diluted with water containing Tween 80®. Each of the resultant chemical solutions was dropped on the entire surface of an associated one of treatment sections, so that each section was treated with 1 ml of the respective chemical solution (a dose of 2 kg/ha). After the treatment, the plants were grown in a glasshouse. On day 21, a survey was conducted on the herbicidal activity by visual observation, and evaluation was made according to the following criteria. 0: Growth inhibition effect is less than 10%. 1: Growth inhibition effect is equal to or greater than 10%, and less than 30%. 2; Growth inhibition effect is equal to or greater than 30%, and less than 50%. 3: Growth inhibition effect equal to or greater than 50%, and less than 70%. 4: Growth inhibition effect is equal to or greater than 70%, and less than 90%. 5: Growth inhibition effect is equal to or greater than 90%, or complete withering is achieved. ECHDG=Echinochloa crus-galli (L.) P. Beauv. var. formosensis Ohwi, MONVA=Monochoria vaginalis, SCIJU=Scirpus juncoides, CYMIC=Cyperus microiria.
# Scirpus juncoides = assay: Test for Herbicidal Effect in Flooding Treatment (#1), SCIJU; conditions: for SCIJU #1 herbicidal effect (growth inhibition grade): flooding treatment at seeding, dose 2 kg/ha, visual observation on day 21; for SCIJU #1 herbicidal effect (growth inhibition rating 0-5): flooding treatment #1
# Outline: (§1)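 Flooded soil in cups was seeded 24 h after flooding, then treated with compound in acetone diluted with Tween 80-containing water, dropped onto the water surface at 2 kg/ha. After growth in a glasshouse, growth inhibition was scored visually on day 21 on a 0 (<10%) to 5 (≥90% or complete withering) scale.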
# [1] = test system: Echinochloa crus-galli (L.) P. Beauv. var. formosensis Ohwi; assay: Test for Herbicidal Effect in Flooding Treatment (#1), ECHDG; conditions: for ECHDG #1 herbicidal effect (growth inhibition grade): flooding treatment at seeding, dose 2 kg/ha, visual observation on day 21; for ECHDG #1 herbicidal effect (growth inhibition rating 0-5): flooding treatment #1
# Outline: as §1
# [2] = test system: Echinochloa crus-galli (L.) P. Beauv. var. formosensis Ohwi; assay: Test for Herbicidal Effect in Flooding Treatment (#2), ECHDG at 2-2.5 leaf stage; conditions: for ECHDG (2-2.5L) #2 herbicidal effect (growth inhibition grade): flooding treatment at 2-2.5 leaf stage, dose 0.2 kg/ha, visual observation on day 21; for ECHDG (2-2.5L) #2 herbicidal effect (growth inhibition rating 0-5): flooding treatment #2, 2-2.5 leaf stage
# Outline: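 Scoring is a visual 0–5 scale of growth inhibition (0 below 10%, 5 at 90% or more or full withering), taken 21 days after treatment in a glasshouse. Dose was 0.2 kg/ha, applied as acetone/Tween 80 aqueous solution onto flooded soil once seedlings reached the 2–2.5 leaf stage.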
Compound,MONVA #1 herbicidal effect (growth inhibition grade) (Monochoria vaginalis),SCIJU #1 herbicidal effect (growth inhibition grade) (Scirpus juncoides),ECHDG #1 herbicidal effect (growth inhibition grade) [1],ECHDG (2-2.5L) #2 herbicidal effect (growth inhibition grade) [2],MONVA #1 herbicidal effect (growth inhibition rating 0-5) (Monochoria vaginalis),SCIJU #1 herbicidal effect (growth inhibition rating 0-5) (Scirpus juncoides),ECHDG #1 herbicidal effect (growth inhibition rating 0-5) [1],ECHDG (2-2.5L) #2 herbicidal effect (growth inhibition rating 0-5) [2]
"[2H]C([2H])(c1c(OCC)ccc(Cl)c1Cl)S(=O)(=O)c1ncc(Cl)s1 [Compound 1C-130, 5-chloro-2-{[2-ethoxy-5,6-dichlorophenyl][dideuterium(methanesulfonyl)]}-1,3-thiazole]","5 (Growth inhibition effect is equal to or greater than 90%, or complete withering is achieved)","5 (Growth inhibition effect is equal to or greater than 90%, or complete withering is achieved)","5 (Growth inhibition effect is equal to or greater than 90%, or complete withering is achieved)","5 (Growth inhibition effect is equal to or greater than 90%, or complete withering is achieved)",,,,
[O-][S+](Cc1c(F)cccc1OCC(F)(F)C(F)F)c1ncc(Br)s1 (stereo not shown) [Compound 1B-26],,,,,"5 (Growth inhibition effect is equal to or greater than 90%, or complete withering is achieved)","5 (Growth inhibition effect is equal to or greater than 90%, or complete withering is achieved)","5 (Growth inhibition effect is equal to or greater than 90%, or complete withering is achieved)","4 (Growth inhibition effect is equal to or greater than 70%, and less than 90%)"
O=S(=O)(Cc1c(Cl)cccc1OCC(F)F)c1ncc(Cl)s1 [Compound 1C-51],"5 (Growth inhibition effect is equal to or greater than 90%, or complete withering is achieved)","5 (Growth inhibition effect is equal to or greater than 90%, or complete withering is achieved)","5 (Growth inhibition effect is equal to or greater than 90%, or complete withering is achieved)","5 (Growth inhibition effect is equal to or greater than 90%, or complete withering is achieved)",,,,
[O-][S+](Cc1c(Cl)cccc1OCC(F)(F)F)c1ncc(Cl)s1 (stereo not shown) [Compound 1B-10],,,,,"5 (Growth inhibition effect is equal to or greater than 90%, or complete withering is achieved)","5 (Growth inhibition effect is equal to or greater than 90%, or complete withering is achieved)","5 (Growth inhibition effect is equal to or greater than 90%, or complete withering is achieved)","5 (Growth inhibition effect is equal to or greater than 90%, or complete withering is achieved)"
COc1ccc(Cl)c(CS(=O)(=O)c2ncc(Cl)s2)c1Cl [Compound 1C-73],"5 (Growth inhibition effect is equal to or greater than 90%, or complete withering is achieved)","5 (Growth inhibition effect is equal to or greater than 90%, or complete withering is achieved)","5 (Growth inhibition effect is equal to or greater than 90%, or complete withering is achieved)","5 (Growth inhibition effect is equal to or greater than 90%, or complete withering is achieved)",,,,
O=S(=O)(Cc1c(Cl)cccc1OC(F)F)c1ncc(Br)s1 [Compound 1C-154],"5 (Growth inhibition effect is equal to or greater than 90%, or complete withering is achieved)","5 (Growth inhibition effect is equal to or greater than 90%, or complete withering is achieved)","5 (Growth inhibition effect is equal to or greater than 90%, or complete withering is achieved)","5 (Growth inhibition effect is equal to or greater than 90%, or complete withering is achieved)",,,,
CCOc1ccc(Cl)cc1C(F)(F)S(=O)(=O)c1nc(F)c(Cl)s1 [Compound 1C-139],"5 (Growth inhibition effect is equal to or greater than 90%, or complete withering is achieved)","5 (Growth inhibition effect is equal to or greater than 90%, or complete withering is achieved)",,"1 (Growth inhibition effect is equal to or greater than 10%, and less than 30%)",,,,
[O-][S+](Cc1c(F)cccc1OC(F)F)c1ncc(Br)s1 (stereo not shown) [Compound 1B-19],,,,,"5 (Growth inhibition effect is equal to or greater than 90%, or complete withering is achieved)","5 (Growth inhibition effect is equal to or greater than 90%, or complete withering is achieved)","5 (Growth inhibition effect is equal to or greater than 90%, or complete withering is achieved)","5 (Growth inhibition effect is equal to or greater than 90%, or complete withering is achieved)"
CS(=O)(=O)c1ccc(CS(=O)(=O)c2ncc(Cl)s2)cc1 [Compound 1C-168],"5 (Growth inhibition effect is equal to or greater than 90%, or complete withering is achieved)","5 (Growth inhibition effect is equal to or greater than 90%, or complete withering is achieved)","5 (Growth inhibition effect is equal to or greater than 90%, or complete withering is achieved)",,,,,
[O-][S+](Cc1c(OCC(F)F)cccc1OCC(F)F)c1ncc(Cl)s1 (stereo not shown) [Compound 1B-15],,,,,"5 (Growth inhibition effect is equal to or greater than 90%, or complete withering is achieved)","5 (Growth inhibition effect is equal to or greater than 90%, or complete withering is achieved)","3 (Growth inhibition effect equal to or greater than 50%, and less than 70%)",
[O-][S+](Cc1c(Cl)cccc1OCC(F)(F)C(F)(F)F)c1ncc(Cl)s1 (stereo not shown) [Compound 1B-14],,,,,"5 (Growth inhibition effect is equal to or greater than 90%, or complete withering is achieved)","5 (Growth inhibition effect is equal to or greater than 90%, or complete withering is achieved)","5 (Growth inhibition effect is equal to or greater than 90%, or complete withering is achieved)",
COc1ccc(Cl)c(CS(=O)(=O)c2ncc(C(F)(F)F)s2)c1F [Compound 1C-167],"5 (Growth inhibition effect is equal to or greater than 90%, or complete withering is achieved)","5 (Growth inhibition effect is equal to or greater than 90%, or complete withering is achieved)","5 (Growth inhibition effect is equal to or greater than 90%, or complete withering is achieved)",,,,,
